Some test systems named below: A498 renal; HCT-15 colon; M14 melanoma; NCI-H522 lung; SK-MEL-2 melanoma; SN12C renal; SNB-19 CNS; SNB-75 CNS; SR leukemia; UACC-62 melanoma.
Common to all, as to assay: DTP human tumour cell line panel, 48 h

Data on eight compounds can be found in PubChem BioAssay (NCI).

Molecules are shown by their SMILES. “And” between values parts separate entries of the source, which are not always exact repeats. Equal entries are not always repeated.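 Growth conditions: 96-well plates. Treatment: test compound, 48 hours, 5 concentrations. Analysis: linear interpolation between bracketing concentrations; unreached endpoints set to highest concentration. GI50 = concentration required for 50% inhibition of growth. Definition used: TGI = concentration required for complete inhibition of growth.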 Bounds are passed on as bounds.

Consider `CS(=O)(=O)c1ccc(Oc2cc(F)cc(C#N)c2)c2c1[C@H](O)[C@H](F)[C@@H]2F`, for which the GI50 is 4.86 µM in the assay with A498 renal; over 100 µM with HCT-15 colon; over 100 µM in the assay with M14 melanoma; over 100 µM with NCI-H522 lung; over 100 µM with SK-MEL-2 melanoma; over 100 µM in the assay on SN12C renal. For the same compound, the GI50 with SNB-19 CNS, with SNB-75 CNS, with SR leukemia and in the assay with UACC-62 melanoma was over 100 µM in each case. In addition, the TGI in the assay on A498 renal, with HCT-15 colon, in the assay on M14 melanoma, with NCI-H522 lung, in the assay on SK-MEL-2 melanoma and in the assay with SN12C renal was over 100 µM each time. Also, the TGI in the assay on SNB-19 CNS, with SNB-75 CNS, in the assay on SR leukemia and with UACC-62 melanoma was over 100 µM in each case.

On to `CCNC(=O)C[C@@H]1N=C(c2ccc(Cl)cc2)c2cc(OC)ccc2-n2c(C)nnc21`, for which the GI50 in the assay on A498 renal is 1.73 µM; in the assay with HCT-15 colon, 3.77 µM; with M14 melanoma, 2.02 µM; in the assay on NCI-H522 lung, 2.08 µM; in the assay on SK-MEL-2 melanoma, 3.28 µM; with SN12C renal, 15.5 µM. For the same compound, the GI50 in the assay with SNB-19 CNS is 5.11 µM; in the assay on SNB-75 CNS, 0.034 µM; in the assay on SR leukemia, 0.567 µM; in the assay with UACC-62 melanoma, 0.618 µM. Besides, the TGI with A498 renal is over 69.3 µM; in the assay on HCT-15 colon, over 100 µM; in the assay with M14 melanoma it was over 100 µM; with NCI-H522 lung, over 100 µM; in the assay with SK-MEL-2 melanoma, over 100 µM; with SN12C renal, over 100 µM. For the same compound, the total growth inhibition concentration (TGI) in the assay on SNB-19 CNS was over 100 µM; with SNB-75 CNS, 1.6 µM; in the assay with SR leukemia it was over 100 µM; with UACC-62 melanoma, over 100 µM.

With `CC(C)(C)[Si](C)(C)OCC1CCC(n2cnc3c(NC(=O)c4ccccc4)ncnc32)O1` (stereo not given), the total growth inhibition concentration (TGI) is 35.5 µM in the assay on A498 renal; 39.2 µM in the assay with HCT-15 colon; 30.3 µM in the assay with M14 melanoma; 33.2 µM in the assay on NCI-H522 lung; 45.6 µM with SK-MEL-2 melanoma; 34 µM in the assay on SN12C renal. Moreover, the TGI was 33.9 µM in the assay with SNB-19 CNS, 25.6 µM with SNB-75 CNS, 53.9 µM with SR leukemia and 29.7 µM with UACC-62 melanoma.

Take `COc1cc(/C=C(/C)[N+](=O)[O-])ccc1O`: the GI50 in the assay with A498 renal is 5.89 µM and 11.6 µM; in the assay with HCT-15 colon it was 2.34 µM and 2 µM; in the assay with M14 melanoma it was 1.83 µM and 1.85 µM; in the assay on NCI-H522 lung, 0.46 µM and 0.282 µM; in the assay with SK-MEL-2 melanoma, 2.15 µM and 1.7 µM; with SN12C renal it was 2.2 µM and 2.43 µM. Besides, the GI50 was 4.55 µM and 5.02 µM in the assay on SNB-19 CNS; 3.64 µM and 1.91 µM with SNB-75 CNS; 1.12 µM in the assay on SR leukemia; 1.77 µM and 1.8 µM in the assay with UACC-62 melanoma. The TGI with A498 renal is 13.7 µM and 23.8 µM; with HCT-15 colon, 7.4 µM and 6.21 µM; with M14 melanoma, 3.79 µM and 3.6 µM; with NCI-H522 lung, 1.4 µM and 1.09 µM; in the assay on SK-MEL-2 melanoma it was 4.3 µM and 3.49 µM; in the assay with SN12C renal, 5.98 µM and 9.43 µM. Besides, the TGI in the assay with SNB-19 CNS is 16.2 µM and 17.5 µM; in the assay on SNB-75 CNS, 15.1 µM and 8.45 µM; in the assay on SR leukemia it was 11.2 µM; in the assay with UACC-62 melanoma it was 3.7 µM and 3.71 µM.

For the compound `O=C1OC(c2ccco2)=N/C1=C\c1ccc(Cl)c(Cl)c1`, the TGI in the assay on A498 renal, in the assay with HCT-15 colon, in the assay with M14 melanoma, in the assay with NCI-H522 lung, with SK-MEL-2 melanoma and in the assay on SN12C renal was over 100 µM in each case. The TGI in the assay with SNB-19 CNS, in the assay with SNB-75 CNS, in the assay with SR leukemia and in the assay with UACC-62 melanoma was over 100 µM in each case.

For `C=C1C(=O)O[C@H]2[C@H]1CC/C(COC(=O)C(=O)c1c[nH]c3ccccc13)=C\CC[C@@]1(C)O[C@@H]21`, the GI50 in the assay with A498 renal was 8.56 µM; in the assay on HCT-15 colon, 1.75 µM; in the assay on M14 melanoma, 2 µM; in the assay with NCI-H522 lung, 0.878 µM; in the assay on SK-MEL-2 melanoma, 1.63 µM; with SN12C renal it was 2.72 µM. In addition, the GI50 is 10.6 µM with SNB-19 CNS, 2.29 µM with SNB-75 CNS, 1.55 µM in the assay with SR leukemia and 1.89 µM with UACC-62 melanoma. Also, the TGI in the assay with A498 renal is 20.7 µM; with HCT-15 colon, 4.02 µM; with M14 melanoma, 5.19 µM; in the assay with NCI-H522 lung, 2.4 µM; with SK-MEL-2 melanoma, 3.78 µM; in the assay on SN12C renal it was 7.11 µM. In addition, the TGI with SNB-19 CNS is 26 µM; with SNB-75 CNS it was 11.1 µM; in the assay on SR leukemia, 14.3 µM; in the assay on UACC-62 melanoma, 4.29 µM.

Turning to `O=C(/C=C/c1ccco1)c1ccc(Nc2nc(Nc3ccc(F)cc3)nc(Nc3ccc(Cl)cc3)n2)cc1`, the GI50 in the assay with A498 renal is 2.39 µM; in the assay on HCT-15 colon, 9.47 µM; with M14 melanoma, 13.5 µM; in the assay with NCI-H522 lung it was 31.1 µM; in the assay with SK-MEL-2 melanoma, over 49.8 µM; in the assay on SN12C renal, 45.6 µM. For the same compound, the GI50 was 34.8 µM in the assay with SNB-19 CNS, 30.5 µM with SNB-75 CNS, over 20.7 µM in the assay with SR leukemia and over 37.4 µM in the assay on UACC-62 melanoma. In addition, the TGI in the assay on A498 renal was over 65.1 µM; with HCT-15 colon, over 100 µM; in the assay on M14 melanoma, 56.9 µM; in the assay with NCI-H522 lung it was over 100 µM; in the assay on SK-MEL-2 melanoma, over 100 µM; with SN12C renal it was over 100 µM. The TGI was over 70 µM in the assay with SNB-19 CNS, over 80.9 µM in the assay on SNB-75 CNS, over 44.5 µM with SR leukemia and over 59.5 µM in the assay with UACC-62 melanoma.

In the case of `O=C(Nc1ccc(Cl)c([N+](=O)[O-])c1)Nc1nc2ccccc2s1`, the GI50 with A498 renal was 2.14 µM; with HCT-15 colon it was 3.32 µM; with M14 melanoma, 11.3 µM; in the assay with NCI-H522 lung, 2.44 µM; in the assay on SK-MEL-2 melanoma it was 2.37 µM; in the assay with SN12C renal, 3.74 µM. Also, the GI50 with SNB-19 CNS is 4.87 µM; in the assay on SNB-75 CNS, 3.97 µM; in the assay on SR leukemia it was 3.94 µM; in the assay on UACC-62 melanoma, 4.05 µM. The TGI in the assay on A498 renal came out at 8.01 µM; in the assay with HCT-15 colon, 15.5 µM; in the assay with M14 melanoma, 33 µM; with NCI-H522 lung, 7.33 µM; in the assay with SK-MEL-2 melanoma it was 5.32 µM; in the assay on SN12C renal, 19 µM. Moreover, the TGI with SNB-19 CNS turned out to be 30.8 µM; in the assay on SNB-75 CNS it was 15.4 µM; in the assay with SR leukemia it was 16.4 µM; in the assay with UACC-62 melanoma it was 18 µM.

The term GI50 denotes the concentration giving 50% growth inhibition. Usually TGI stands for the concentration at which net growth stops. The low end stands for more potent growth arrest, the high end for less potent growth arrest.
